From paper PMC4766415 (Nature Communications, 2016)

Legend:
[1] = test system: T1, TTR in human plasma (WT-TTR and V30M-TTR); assay: [125I]T4 competition in human plasma, native gel electrophoresis; type: binding; conditions: 1 mM; plasma from normal (WT-TTR) and V30M-TTR FAP patient; 1 h RT
T1 construct: human plasma from a normal (WT-TTR) and from an FAP patient carrying the V30M-TTR mutation; from tissue; host or cells: human plasma of normal donors and of V30M-TTR carriers
Excerpt: Error bars indicate s.e.m. (n=3). […] Error bars indicate s.e.m. (n=3).

[2] = test system: T2, tetrameric TTR in human plasma; assay: Ex vivo plasma TTR stability by immunoturbidity after urea denaturation; type: biochemical; conditions: 4.8 M urea, 48 h; pooled plasma of healthy volunteers
T2 construct: Plasma TTR was then immunoprecipitated; from tissue; host or cells: human plasma
Excerpt: Stabilization of plasma TTR under physiological conditions was confirmed using an immunoturbidity assay[29] (Fig. 4c). […] After urea treatment, samples were crosslinked with glutaraldehyde and the concentration of TTR determined by immunoturbidity. Treatment with urea and glutaraldehyde decreases immunoturbidity signal due to the extensive modification of denatured TTR monomers by glutaraldehyde, hampering antibody recognition. As TTR denaturation is preceded by tetramer dissociation, the signal roughly correlates with tetramer stability.
A pool of lithium-heparin plasma samples from healthy volunteers stored at −80 °C was thawed on ice. Partially clotted particles were removed by spinning the samples for 2 min at 10,000g. […] Addition volume was limited to maximum 1.5% (v/v) of sample. A control in which DMSO vehicle was added was included in the experimental design. Samples were then mixed with a urea solution (8 M in 50 mM potassium phosphate pH 7.0, 100 mM NaCl, 1 mM dithiothreitol, 1 mM EDTA) to a final urea concentration of 4.8 M, and incubated for various time points at controlled RT conditions. […] Samples were transferred to a measuring tube and read by immunoturbidity after 5 min at RT. Immunoturbidity was measured in a Siemens Automate Dimension EXL200 instrument, using the Siemens Prealbumin (PALB) reagent and calibrator according to the manufacturer's instructions. […]

[3] = Tolcapone quantification in human plasma after oral administration (UPLC-MS/MS); type: in vivo; conditions: 200 mg
Procedure: TTR stabilization in vivo was measured using an immunoturbidimetric assay as in Fig. 4c. The fraction of initial tetramer concentration (FOI) was determined in triplicate for each sample (FOI=TTR tetramer after 48 h urea treatment/TTR tetramer at time 0 in the presence of urea).
Blood was collected 30 min before administration and 2 h after the dose in BD Vacutainer tubes with Lithium-Heparin and gel for plasma separation, following the manufacturer's instructions. Briefly, after gently mixing the tubes by inversion, blood was centrifuged at 1,300g for 10 min at 20 °C. Supernatants were collected and immediately stored at −80 °C until analysis.
Extracted samples were analysed on a Waters Acquity UPLC coupled with a Waters Xevo TQ MS triple quadrupole mass spectrometer. Chromatographic separation was achieved on an Acquity HSS C18 column using a gradient elution with the mobile phase of methanol and 0.1% formic acid in water.

WT-TTR = WT-TTR (Homo sapiens, UniProt P02766); assay: Isothermal titration calorimetry, WT-TTR
[4] = test system: Rat Schwannoma cells (RN22); assay: Caspase-3 activation by Y78F-TTR oligomers in RN22 cells; conditions: Y78F-TTR aggregates 2 μM formed with 20 μM compound; 24 h exposure
[5] = general model, two ligand-binding sites

Cc1ccc(C(=O)c2cc(O)c(O)c([N+](=O)[O-])c2)cc1 [tolcapone]
radioactive T4-TTR band in the presence of compound [1]: no longer visible
stabilization of plasma TTR against urea denaturation [2]: stabilized TTR in a dose-responsive manner
concentration at 2 h [3]: 13.6 µM
TΔs1 binding entropy (WT-TTR; first ligand): 1.8 kcal/mol
Δh1 site-specific binding enthalpy (WT-TTR; first ligand): -8.7 kcal/mol
ΔH1 overall binding enthalpy (WT-TTR; [5]): -8.7 kcal/mol
ΔH2 overall binding enthalpy (WT-TTR; [5]): -18.4 kcal/mol
β2 overall association constant (WT-TTR; [5]): 7.9 × 10^14 M^−2
TΔs2 binding entropy (WT-TTR; second ligand): 0.2 kcal/mol
Δh2 site-specific binding enthalpy (WT-TTR; second ligand): -9.7 kcal/mol
reduction in Caspase-3 activation [4]: 27.8%±6.1
